# Assay results from the supplement of paper PMC6045584.
# ± gives the standard deviation of the averaged measurements.
# What was measured:
# [1] = compound: C=CC(=O)Nc1cc2c(Nc3ccc(F)c(Cl)c3)ncnc2cc1OCCCN1CCOCC1 [CANERTINIB]; experiment: surviving fraction relative to DMSO-only wells; higher = less growth inhibition; settings: exposure time: 5 days
# Outline: (§1)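 Log-phase tumour cell lines, 250–500 cells per well in 384-well plates, received inhibitors at 0.5, 1, 5, 10, 50, 100, 500 and 1000 nM continuously for five days, starting 24 hours after seeding. Viability was quantified with CellTiter-Glo luminescence and normalised to the median of DMSO-only wells to give surviving fraction. Three screens were run per line, and a line stayed in only with replicate Pearson r >0.7 and median Z' >0.3.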
# [2] = compound: Cn1cc(C2=Nc3cc(NC(=O)C(N)C4CCCCC4)cc4c3C2=CNNC4=O)cn1; experiment: as above; settings: exposure time: 5 days
# Outline: as §1
Test System,surviving fraction ([1]; 0.5 nM),surviving fraction ([1]; 1 nM),surviving fraction ([1]; 5 nM),surviving fraction ([1]; 10 nM),surviving fraction ([1]; 50 nM),surviving fraction ([1]; 100 nM),surviving fraction ([1]; 500 nM),surviving fraction ([1]; 1000 nM),surviving fraction ([2]; 0.5 nM),surviving fraction ([2]; 1 nM),surviving fraction ([2]; 5 nM),surviving fraction ([2]; 10 nM),surviving fraction ([2]; 50 nM),surviving fraction ([2]; 100 nM),surviving fraction ([2]; 500 nM),surviving fraction ([2]; 1000 nM)
CAL51 BREAST,0.937 ± 0.078,0.92 ± 0.061,0.983 ± 0.053,0.976 ± 0.018,0.974 ± 0.038,1.05 ± 0.083,0.87 ± 0.014,0.481 ± 0.015,0.889 ± 0.037,0.973 ± 0.041,0.945 ± 0.052,0.903 ± 0.037,0.962 ± 0.079,0.875 ± 0.048,0.484 ± 0.0085,0.276 ± 0.026
MHM BONE,0.981 ± 0.051,0.983 ± 0.038,1.03 ± 0.054,1 ± 0.051,0.9877 ± 0.0076,0.953 ± 0.021,0.903 ± 0.019,0.863 ± 0.018,0.998 ± 0.018,1.01 ± 0.032,1.051 ± 0.01,1.031 ± 0.002,1.12 ± 0.021,1.15 ± 0.034,0.394 ± 0.034,0.183 ± 0.02
MDAMB436 BREAST,0.798 ± 0.056,0.875 ± 0.064,0.854 ± 0.065,0.839 ± 0.061,0.956 ± 0.094,0.98 ± 0.13,0.839 ± 0.054,0.742 ± 0.067,0.847 ± 0.079,0.911 ± 0.097,0.871 ± 0.05,0.852 ± 0.11,0.813 ± 0.051,0.577 ± 0.031,0.284 ± 0.02,0.228 ± 0.011
HSSYII SYNOVIAL,0.809 ± 0.039,0.794 ± 0.015,0.814 ± 0.053,0.855 ± 0.037,0.889 ± 0.033,0.868 ± 0.011,0.724 ± 0.031,0.631 ± 0.021,0.92 ± 0.0095,0.96 ± 0.063,0.885 ± 0.062,0.863 ± 0.014,0.135 ± 0.01,0.046 ± 0.0044,0.0388 ± 0.0032,0.0475 ± 0.0025
HUO3N1 BONE,0.949 ± 0.063,0.949 ± 0.015,0.965 ± 0.069,0.943 ± 0.069,1 ± 0.027,0.995 ± 0.02,0.808 ± 0.03,0.701 ± 0.022,1.01 ± 0.021,0.991 ± 0.062,1.02 ± 0.039,1.03 ± 0.023,0.975 ± 0.043,0.863 ± 0.041,0.504 ± 0.024,0.319 ± 0.04
ASKA SYNOVIAL,0.958 ± 0.03,0.93 ± 0.014,1.04 ± 0.024,0.917 ± 0.062,1.16 ± 0.077,1.09 ± 0.059,0.933 ± 0.1,0.721 ± 0.047,0.985 ± 0.08,1 ± 0.075,0.98 ± 0.028,0.992 ± 0.048,0.65 ± 0.054,0.355 ± 0.028,0.174 ± 0.013,0.229 ± 0.0066
SJSA1 BONE,1.23 ± 0.12,1.2 ± 0.07,1.08 ± 0.15,1.31 ± 0.055,0.0523 ± 0.0021,1.64 ± 0.052,1.66 ± 0.053,1.74 ± 0.12,1.023 ± 0.0096,0.984 ± 0.02,1.01 ± 0.061,1.06 ± 0.036,1.03 ± 0.021,1.006 ± 0.0057,0.526 ± 0.044,0.337 ± 0.018
HOSMNG BONE,0.92 ± 0.04,0.978 ± 0.014,1.003 ± 0.0067,1.01 ± 0.055,1.08 ± 0.12,1.11 ± 0.1,1.04 ± 0.025,1.11 ± 0.016,0.954 ± 0.099,0.99 ± 0.083,0.954 ± 0.052,0.943 ± 0.016,0.992 ± 0.025,0.975 ± 0.076,0.737 ± 0.017,0.15 ± 0.031
KPD BONE,0.943 ± 0.043,0.947 ± 0.076,0.962 ± 0.026,0.929 ± 0.023,0.917 ± 0.068,0.922 ± 0.04,0.776 ± 0.048,0.497 ± 0.047,0.953 ± 0.041,0.891 ± 0.018,1.19 ± 0.24,0.977 ± 0.026,0.84 ± 0.028,0.389 ± 0.021,0.0873 ± 0.0023,0.0763 ± 0.008
HS578T BREAST,0.851 ± 0.12,0.857 ± 0.1,0.873 ± 0.066,0.785 ± 0.038,1.04 ± 0.14,1 ± 0.11,0.918 ± 0.11,0.738 ± 0.14,0.986 ± 0.027,1.06 ± 0.057,0.946 ± 0.14,0.927 ± 0.037,0.788 ± 0.051,0.485 ± 0.049,0.162 ± 0.0082,0.174 ± 0.021
